Reference: the supplement of paper PMC10307832

Legend:
Assay in all cases: relative viability (nuclei count vs DMSO), 5 days (fraction); higher = more cells survive
[1] = compound: O=C(/C=C/c1ccccc1)NC(NC(=S)Nc1cccc2cccnc12)C(Cl)(Cl)Cl [Salubrinal] + Cc1nc(NC(=O)N2CCC[C@H]2C(N)=O)sc1-c1ccnc(C(C)(C)C(F)(F)F)c1 [Alpelisib] (partner 2 µM)
Procedure, shortened: (§1)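 Cells from lung cancer lines were seeded into 1536-well plates and, one day later, dosed by pin tool. Treatments were either a single drug or a fixed dose of an anchor drug with five library-drug doses (not always all listed) in √10 steps. After 5 days, nuclei were stained in a one-step fixation (final 0.05% Triton X-100, 1% formaldehyde, 1 ug/ml Hoechst) and counted on 4× images, and relative viability is the treated-to-vehicle nuclei ratio, as the median of duplicate plates.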

[2] = compound: Cc1ccc2nc(NCCN)c3ncc(C)n3c2c1 + CS(=O)(=O)CCNCc1ccc(-c2ccc3ncnc(Nc4ccc(OCc5cccc(F)c5)c(Cl)c4)c3c2)o1 [Lapatinib] (partner 2 µM)
Procedure, shortened: as §1

[3] = compound: O=C(/C=C/c1ccccc1)NC(NC(=S)Nc1cccc2cccnc12)C(Cl)(Cl)Cl [Salubrinal] + CS(=O)(=O)CCNCc1ccc(-c2ccc3ncnc(Nc4ccc(OCc5cccc(F)c5)c(Cl)c4)c3c2)o1 [Lapatinib] (partner 2 µM)
Procedure, shortened: as §1

[4] = compound: Cc1ccc2nc(NCCN)c3ncc(C)n3c2c1 + CS(=O)(=O)N1CCN(Cc2cc3nc(-c4cccc5[nH]ncc45)nc(N4CCOCC4)c3s2)CC1 [Pictilisib] (partner 1 µM)
Procedure, shortened: as §1

Cell Line	relative viability ([1]; first compound 0.08 µM)	relative viability ([1]; first compound 0.253 µM)	relative viability ([1]; first compound 0.8 µM)	relative viability ([1]; first compound 2.53 µM)	relative viability ([1]; first compound 8 µM)	relative viability ([2]; first compound 0.04 µM)	relative viability ([2]; first compound 0.1265 µM)	relative viability ([2]; first compound 0.4 µM)	relative viability ([2]; first compound 1.265 µM)	relative viability ([2]; first compound 4 µM)	relative viability ([3]; first compound 0.08 µM)	relative viability ([3]; first compound 0.253 µM)	relative viability ([3]; first compound 0.8 µM)	relative viability ([3]; first compound 2.53 µM)	relative viability ([3]; first compound 8 µM)	relative viability ([4]; first compound 0.04 µM)	relative viability ([4]; first compound 0.1265 µM)	relative viability ([4]; first compound 0.4 µM)	relative viability ([4]; first compound 1.265 µM)	relative viability ([4]; first compound 4 µM)
H3255	0.913	0.676	0.762	0.693	0.769	0.275	0.268	0.398	0.252	0.283	0.241	0.253	0.191	0.233	0.226	0.555	0.431	0.487	0.38	0.456
201T	1.07	0.999	1.05	1.02	1.01	1.07	1.03	0.989	1.17	0.98	1.03	1.06	1.06	1.07	1.06	0.701	0.716	0.639	0.66	0.652
NCI-H2126	0.808	0.767	0.812	0.727	0.725	0.793	0.783	0.765	0.791	0.593	0.704	0.701	0.801	0.82	0.707	0.512	0.512	0.489	0.453	0.456
HOP-62	0.861	1.26	0.95	1.03	1.21	1.13	0.845	0.688	0.81	1.02	1.06	0.927	1.01	1.16	0.968	0.829	0.567	0.492	0.589	0.71
CAL-12T	1.6	0.712	1.31	1.17	1.02	0.892	0.714	0.674	0.553	0.502	0.804	0.688	0.629	0.663	0.636	0.521	0.517	0.389	0.364	0.232
NCI-H520	0.904	0.578	1.18	0.878	0.949	0.964	0.853	0.866	0.837	0.729	0.921	0.767	1.25	0.847	0.769	0.276	0.283	0.282	0.294	0.368
NCI-H1755	1.04	0.795	1.01	0.948	0.893	1.1	1.03	0.934	1.1	1.04	1.24	0.794	1.11	1.04	0.966	0.485	0.439	0.476	0.39	0.411
NCI-H2023	0.679	0.586	0.688	0.587	0.488	0.949	0.884	0.651	1.26	0.69	0.747	0.936	1.04	0.814	0.606	0.222	0.242	0.238	0.288	0.201
NCI-H2009	1.16	1.1	1.19	1.16	1.07	1.03	0.958	0.88	0.928	0.836	0.997	1.02	0.914	0.872	0.793	0.866	0.767	0.841	0.762	0.765
